US20150167050A1, “Cancer Diagnosis by Measuring Polyisoprenylated Methylated Protein Methyl Esterase Activity” (Florida Agricultural and Mechanical University, priority 2013, published 2015)

Columns and labels:
[1] = system: PMPMEase; conditions: cited from earlier work; for concentrations that inhibit PMPMEase: concentration range given in words only
[2] = system: PMPMEase; experiment: Inhibition of PMPMEase by drugs, curcumin, fatty acids and prostaglandins; type: biochemical; conditions: relative to arachidonic acid (AA)

Compound | concentrations that inhibit PMPMEase [1] | also measured
CCCCC[C@H](O)/C=C/[C@H]1[C@H](O)CC(=O)[C@@H]1C/C=C\CCCC(=O)O [PGE2] |  | inhibition of PMPMEase at 1 mM ([1]; 1 mM): did not inhibit
CCCCC[C@H](O)/C=C/[C@H]1C=CC(=O)[C@@H]1C/C=C\CCCC(=O)O [Prostaglandin (PG) A2] |  | fold less potent than AA as PMPMEase inhibitor [2]: 63 fold
CCCCC/C=C\C/C=C\C/C=C\C/C=C\CCCC(=O)O [arachidonic acid] | micromolar concentrations | 
O=P1(N(CCCl)CCCl)NCCCO1 (stereo not drawn) [cyclophosphamide] | millimolar concentrations | 
CC/C(=C(\c1ccccc1)c1ccc(OCCN(C)C)cc1)c1ccccc1 [tamoxifen] | millimolar concentrations | 
COc1cc(/C=C/C(=O)CC(=O)/C=C/c2ccc(O)c(OC)c2)ccc1O [curcumin] | micromolar concentrations | 
